Assay results from PubChem BioAssay (NCI).
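Cells were grown in 96-well plates and exposed to each compound for 48 hours at five concentrations; endpoints were interpolated linearly between bracketing concentrations, or set to the highest concentration if not reached. The concentration for full growth arrest is given as TGI.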

Columns and labels:
Assay in all cases: NCI anticancer screen, dose series, 48 h
[1] = test system: KM12 colon
[2] = test system: MOLT-4 leukemia
[3] = test system: XF 498 CNS
[4] = test system: SK-MEL-5 melanoma
[5] = test system: HL-60(TB) leukemia
[6] = test system: SF-295 CNS
[7] = test system: NCI-H460 lung
[8] = test system: SR leukemia
[9] = test system: SNB-75 CNS
[10] = test system: M19-MEL melanoma
[11] = test system: NCI-H522 lung
[12] = test system: OVCAR-4 ovarian
[13] = test system: NCI-H226 lung
[14] = test system: A549 NSCLC
[15] = test system: ACHN renal
[16] = test system: HOP-62 NSCLC
[17] = test system: DLD-1 colon
[18] = test system: HCT-116 colon
[19] = test system: HOP-92 NSCLC
[20] = test system: OVCAR-5 ovarian
[21] = test system: COLO 205 colon
[22] = test system: NCI-H23 lung
[23] = test system: U251 CNS
[24] = test system: M14 melanoma
[25] = test system: CCRF-CEM leukemia
[26] = test system: HOP-18 NSCLC
[27] = test system: 786-0 renal
[28] = test system: SF-268 CNS
[29] = test system: UACC-62 melanoma
[30] = test system: HCT-15 colon
[31] = test system: SK-MEL-2 melanoma
[32] = test system: MALME-3M melanoma
[33] = test system: SK-MEL-28 melanoma
[34] = test system: HCC-2998 colon
[35] = test system: SW-620 colon
[36] = test system: A498 renal
[37] = test system: CAKI-1 renal
[38] = test system: KM20L2 colon
[39] = test system: UACC-257 melanoma
[40] = test system: SNB-78 CNS
[41] = test system: LXFL 529 NSCLC
[42] = test system: RXF 393 renal
[43] = test system: SN12C renal
[44] = test system: TK-10 renal
[45] = test system: K-562 leukemia
[46] = test system: EKVX NSCLC
[47] = test system: IGROV1 ovarian
[48] = test system: SK-OV-3 ovarian
[49] = test system: SNB-19 CNS
[50] = test system: SF-539 CNS
[51] = test system: OVCAR-8 ovarian
[52] = test system: UO-31 renal
[53] = test system: OVCAR-3 ovarian
[54] = test system: DMS 273 small cell lung
[55] = test system: LOX IMVI melanoma
[56] = test system: HT29 colon
[57] = test system: RPMI-8226 leukemia
[58] = test system: DMS 114 small cell lung
[59] = test system: DU-145 prostate

In the case of COc1ccc(Nc2nc3c(N)cc(C(F)(F)F)cc3nc2-c2ccccc2)cc1OC, the TGI [1] is reported as over 100 µM, the TGI [2] is reported as over 100 µM and the TGI [3] is reported as 33.1 µM. For the same compound, the TGI [4] was 62.3 µM, the TGI [5] was over 100 µM and the TGI [6] was 44.8 µM. It also gave a TGI [7] of over 100 µM, a TGI [8] of over 100 µM and a TGI [9] of 17.5 µM. For the same compound, the TGI [10] was 60.4 µM, the TGI [11] was 43.9 µM and the TGI [12] was 33.8 µM. The TGI [13] was 57.9 µM, the TGI [14] was 66.1 µM and the TGI [15] was 27.5 µM. The TGI [16] was 57.8 µM, the TGI [17] was over 100 µM and the TGI [18] was over 100 µM. It also gave a TGI [19] of 46.3 µM, a TGI [20] of over 100 µM and a TGI [21] of over 100 µM. It also gave a TGI [22] of over 100 µM, a TGI [23] of 42.8 µM and a TGI [24] of over 100 µM. For the same compound, the TGI [25] was over 100 µM, the TGI [26] was 43.8 µM and the TGI [27] was 28.9 µM. For the same compound, the TGI [28] was 71.1 µM, the TGI [29] was 44.6 µM and the TGI [30] was over 100 µM. It also gave a TGI [31] of 69.1 µM, a TGI [32] of 38.5 µM and a TGI [33] of over 100 µM. It also gave a TGI [34] of 89.6 µM, a TGI [35] of over 100 µM and a TGI [36] of 70 µM. For the same compound, the TGI [37] was 42.5 µM, the TGI [38] was over 100 µM and the TGI [39] was 63.9 µM. For the same compound, the TGI [40] was 75.7 µM, the TGI [41] was 46.4 µM and the TGI [42] was 50.2 µM. The TGI [43] was 47.1 µM, the TGI [44] was 47.3 µM and the TGI [45] was over 100 µM. It also gave a TGI [46] of 59.7 µM, a TGI [47] of 69.7 µM and a TGI [48] of 28.6 µM. It also gave a TGI [49] of 53.8 µM, a TGI [50] of 39.6 µM and a TGI [51] of 43.2 µM. For the same compound, the TGI [52] was 95.3 µM, the TGI [53] was 42.9 µM and the TGI [54] was over 100 µM. It also gave a TGI [55] of over 100 µM.
For CCOC(=O)C1=C(OC(OCC)C(C)[Se]c2ccccc2)CCC1 (centres undefined), the TGI [1] was over 100 µM, the TGI [2] was 58.5 µM and the TGI [3] was 34.4 µM. For the same compound, the TGI [4] was 39.9 µM, the TGI [5] was 21.2 µM and the TGI [6] was 79.3 µM. The TGI [7] was 60 µM, the TGI [8] was 28 µM and the TGI [9] was 73.6 µM. For the same compound, the TGI [10] was 38.9 µM, the TGI [11] was 26.9 µM and the TGI [12] was 37.5 µM. The TGI [13] was 50.4 µM, the TGI [14] was over 100 µM and the TGI [15] was 68.4 µM. For the same compound, the TGI [16] was over 100 µM, the TGI [17] was 40.5 µM and the TGI [18] was 38.8 µM. It also gave a TGI [19] of 48.3 µM, a TGI [20] of over 100 µM and a TGI [21] of 82.2 µM. For the same compound, the TGI [22] was 27.9 µM, the TGI [23] was 20.1 µM and the TGI [24] was 63.2 µM. It also gave a TGI [25] of 49.7 µM, a TGI [26] of 51.7 µM and a TGI [27] of 25.1 µM. The TGI [28] was 32.3 µM, the TGI [29] was 43.6 µM and the TGI [30] was 33.6 µM. For the same compound, the TGI [31] was over 100 µM, the TGI [32] was 89.5 µM and the TGI [33] was 62.7 µM. It also gave a TGI [34] of over 100 µM, a TGI [36] of over 100 µM and a TGI [37] of over 100 µM. For the same compound, the TGI [38] was 74.2 µM, the TGI [39] was over 100 µM and the TGI [40] was over 100 µM. For the same compound, the TGI [41] was 37.4 µM, the TGI [42] was 30.2 µM and the TGI [43] was 36.5 µM. The TGI [44] was over 100 µM, the TGI [45] was over 100 µM and the TGI [46] was 59.1 µM. The TGI [56] was 77.6 µM, the TGI [47] was 81 µM and the TGI [57] was 36.5 µM. It also gave a TGI [48] of over 100 µM, a TGI [49] of over 100 µM and a TGI [50] of 39.9 µM. It also gave a TGI [51] of 30.1 µM, a TGI [52] of 47.1 µM and a TGI [53] of 32 µM. For the same compound, the TGI [54] was 22.4 µM and the TGI [55] was 20.4 µM.
With CCOP(=O)(OCC)/C(C#N)=C\c1ccc(OC(C)=O)cc1 the TGI [1] was over 100 µM, the TGI [2] was over 100 µM and the TGI [3] was over 100 µM. It also gave a TGI [4] of over 100 µM, a TGI [5] of over 100 µM and a TGI [6] of over 100 µM. It also gave a TGI [7] of over 100 µM, a TGI [8] of over 100 µM and a TGI [9] of over 100 µM. It also gave a TGI [10] of over 100 µM, a TGI [11] of over 100 µM and a TGI [12] of over 100 µM. The TGI [13] was over 100 µM, the TGI [58] was over 100 µM and the TGI [14] was over 100 µM. The TGI [15] was over 100 µM, the TGI [16] was over 100 µM and the TGI [17] was over 100 µM. For the same compound, the TGI [18] was over 100 µM, the TGI [19] was over 100 µM and the TGI [20] was over 100 µM. The TGI [21] was over 100 µM, the TGI [22] was over 100 µM and the TGI [23] was over 100 µM. The TGI [24] was over 100 µM, the TGI [25] was over 100 µM and the TGI [59] was over 100 µM. It also gave a TGI [26] of over 100 µM, a TGI [27] of over 100 µM and a TGI [28] of over 100 µM. The TGI [29] was over 100 µM, the TGI [30] was over 100 µM and the TGI [31] was over 100 µM. It also gave a TGI [32] of over 100 µM, a TGI [33] of over 100 µM and a TGI [34] of over 100 µM. It also gave a TGI [35] of over 100 µM, a TGI [36] of over 100 µM and a TGI [37] of over 100 µM. The TGI [38] was over 100 µM, the TGI [39] was over 100 µM and the TGI [40] was over 100 µM. It also gave a TGI [41] of over 100 µM, a TGI [42] of over 100 µM and a TGI [43] of over 100 µM. For the same compound, the TGI [44] was over 100 µM, the TGI [45] was over 100 µM and the TGI [46] was over 100 µM. The TGI [56] was over 100 µM, the TGI [47] was over 100 µM and the TGI [57] was over 100 µM. It also gave a TGI [48] of over 100 µM, a TGI [49] of over 100 µM and a TGI [50] of over 100 µM. The TGI [51] was over 100 µM, the TGI [52] was over 100 µM and the TGI [53] was over 100 µM. The TGI [55] was over 100 µM.
